Reference: patent publication US8828678B2, “Self-immolative probes for enzyme activity detection” (Enzo Life Sciences, Inc., priority 2010, dated 2014)

Assay: Chemical reduction of CD-8 and enzymatic (HRP) luminescence testing of the reduction product
Conditions: 200 μM CD-8, 1 mM sodium hydrosulfite, 1 hour room temperature, then H2O2, 4-iodophenol
Description: 100 μl of 200 μM CD-8 (dissolved in 1×PBS buffer) with (1 mM) or without sodium hydrosulfite was incubated in a 96 black microplate (Greiner®) at room temperature for 1 hour. Also included was a positive control of 100 μl of 50 μM of isoluminol dissolved in 1×PBS buffer. A 4:1 volumetric mixture (1.25 μL) of stabilized H2O2 (Roche Diagnotics GmbH: Reference number: 11 582 950 001, component 2) and 200 mM of 4-idophenol was then added. Before adding horseradish peroxidase (HRP), the background luminescence was recorded; after adding 2 μL of 50 μM HRP, the luminescence was immediately recorded on a Biotek® plate reader.

O=C(Nc1ccc2c(=O)[nH][nH]c(=O)c2c1)OCc1ccc([N+](=O)[O-])cc1 [CD-8]
luminescence / release of isoluminol after sodium hydrosulfite: triggering the self-immolative release of isoluminol
